Experimental data published in US4704384A, “Aziridinyl quinone antitumor agents” (priority 1981, dated 1987).
Several values for one entry are separate records, joined by “and”; a condition that tells them apart may be missing. Equal entries are not always repeated. Entries after “also recorded” stand apart in the source; their conditions may differ. Where two headings read alike, the source gives them in different places.

Experiments:
[1] = tested on: lymphocytic leukemia P388; assay type: in vivo, murine; conditions: for ILS: QD1-9, at OD; for ILS / animals alive per 6: Table IX; for OD: QD1-9, Table IX; for animals alive per 6: QD1-9, day 30, at OD; for survivors, P388: Table XI, parentheses, per 6
B16 melanocarcinoma = assay type: in vivo, murine; conditions: for OD: QD1-9, Table IX; for ILS: QD1-9, at OD, Table IX
ependymoblastoma = assay type: in vivo, murine; conditions: for OD: QD1-5, Table X; for ILS: QD1-5, at OD; for ILS / animals alive per 6: Table X; for animals alive per 6: QD1-5, day 60, at OD; for survivors, EM: parentheses, per 6
Text: ^c Ic tumor implantation, ip QD15 treatment schedule.
(§1) A third IC tumor model, the ependymoblastoma system, was also studied. This system requires intracerebral implantation of a solid tumor fragment while the IC L1210 and IC P388 systems utilize IC inoculated ascites tumor fluid. All three use IP drug treatment however. […] Cures (survivors from the group of six mice on the last day of the experiment) are indicated.

lymphoid leukemia L1210 [2] = conditions: for OD / ILS / T-C / animals alive per 6: Table VIII; for survivors, IP L1210: Table XI, parentheses, per 6
Text: ^b Ip tumor implantation, ip QD19 treatment schedule.
^e ILS = [(treated survival + control survival) × 100%] - 100%
The L1210, P388 and B16 test systems described in Table II utilize intraperitoneal (IP) tumor implantation and IP drug treatment while the Lewis lung system employs subcutaneous tumor implantation and IP treatment. All three CNS tumor models (Table III) use intracerebral (IC) tumor implantation and IP treatment.
Aqueous saline solution (0.9%) was used as the drug vehicle. Normally, five doses were employed per experiment with the top dose chosen to produce toxicity. The lower doses were 50% of each preceeding dose.
Consistent with NCI antitumor test protocols, intraperitoneal (IP) administration of the drug was employed with all five tumor systems investigated. Tumor implantation was IP in the systems designated IP leukemia L1210 and P388 as well as B16 melanoma. Intracerebral (IC) tumor implantation was utilized in the IC L1210 and ependymoblastoma tumor systems.

lymphoid leukemia L1210 [3] = assay type: in vivo, murine
Text: as §1

SMILES | ILS [1] | OD (B16 melanocarcinoma) | ILS (B16 melanocarcinoma) | OD (ependymoblastoma) | OD (lymphoid leukemia L1210 [2]; Day 1 only (1 injection)) | ILS (lymphoid leukemia L1210 [2]; Day 1 only, at OD) | OD (lymphoid leukemia L1210 [2]; Q4D (day 1,5,9)) | ILS (lymphoid leukemia L1210 [2]; Q4D, at OD) | OD (lymphoid leukemia L1210 [2]; QD1-9 (9 injections)) | ILS (lymphoid leukemia L1210 [2]; QD1-9, at OD) | activity in IP L1210 (lymphoid leukemia L1210 [2]) | OD [1] | ILS (ependymoblastoma) | also measured
O=C1C(N2CCCC2)=C(N2CC2)C(=O)C(N2CCCC2)=C1N1CC1 [Compound 43, 2,5-DIAZIRIDINYL-3,6-DIPYRROLIDINO-1,4-BENZOQUINONE] | 72% and 55% | 2.0 mg/kg/injection | 28% and 18% | 1.6 mg/kg/injection and 3.1 mg/kg/injection | 4.0 mg/kg/injection and 2.0 mg/kg/injection | 8% | 6.2 mg/kg/injection | 43% | 2.0 mg/kg/injection | 24% and 21% | – | – | – | T-C (lymphoid leukemia L1210 [2]; Q4D, day 5, at OD): -2.3 grams
CCOC(=O)NC1=C(N2CC2C)C(=O)C(NC(=O)OCC)=C(N2CC2C)C1=O (stereo not drawn) [Compound 10] | – | – | – | – | – | – | – | – | – | – | abolished activity | – | – | –
CN(CCO)C1=C(N2CC2)C(=O)C(N(C)CCO)=C(N2CC2)C1=O [Compound 42] | 162% | 0.8 mg/kg/injection | 47% and 31% | 0.4 mg/kg/injection and 0.2 mg/kg/injection | – | -5% | 0.4 mg/kg/injection and 0.2 mg/kg/injection | – | 1.5 mg/kg/injection | 114% and 111% | – | 1.6 mg/kg/injection and 0.8 mg/kg/injection | 84% and 69% | activity in B16 melanoma (B16 melanocarcinoma): approached minimal reproducible activity; OD (lymphoid leukemia L1210 [3]; QD1-9, Table X): 4.0 mg/kg/injection and 2.0 mg/kg/injection; ILS (lymphoid leukemia L1210 [3]; QD1-9, at OD, Table X): 45% and 32%; animals alive per 6 (lymphoid leukemia L1210 [2]; QD1-9, day 30, at OD): 1; survivors, IP L1210 (lymphoid leukemia L1210 [2]): 1
CC(=O)NC1=C(N2CC2(C)C)C(=O)C(NC(C)=O)=C(N2CC2(C)C)C1=O [Compound 21] | – | – | – | – | – | – | – | – | – | – | abolished activity | – | – | –
CN(C)C1=C(N2CC2)C(=O)C(N(C)C)=C(N2CC2)C1=O [Compound 41, 2,5-DIAZIRIDINYL-3,6-BIS(DIMETHYLAMINO)-1,4-BENZOQUINONE] | 74% and 37% | 0.2 mg/kg/injection | 16% and 12% | 1.0 mg/kg/injection and 0.5 mg/kg/injection | 1.5 mg/kg/injection | 21% and 15% | 3.0 mg/kg/injection | 120% and 73% | – | – | – | 1.0 mg/kg/injection and 0.5 mg/kg/injection | 215% and 190% | activity in IC L1210 (lymphoid leukemia L1210 [3]): most active; also recorded: significant activity; OD (lymphoid leukemia L1210 [3]; Q4D(1,5,9), Table X): 3.0 mg/kg/injection; ILS (lymphoid leukemia L1210 [3]; Q4D(1,5,9), at OD, Table X): 72% and 56%; activity in ependymoblastoma (ependymoblastoma): among the most active materials; animals alive per 6 (ependymoblastoma): 5 and 4; survivors, EM (ependymoblastoma; Table XI): 5; animals alive per 6 (lymphoid leukemia L1210 [2]; Q4D, day 30, at OD): 1; survivors, IP L1210 (lymphoid leukemia L1210 [2]): 1
O=C1C(F)=C(N2CC2)C(=O)C(N2CCOCC2)=C1N1CC1 [Compound 31, 2,5-DIAZIRIDINYL-3-FLUORO-5-MORPHOLINO-1,4-BENZOQUINONE] | 57% and 54% | 0.7 mg/kg/injection | 18% and 9% | 0.8 mg/kg/injection and 1.5 mg/kg/injection | – | – | 6.2 mg/kg/injection and 3.1 mg/kg/injection | – | – | – | – | 3.0 mg/kg/injection and 6.0 mg/kg/injection | 49% and 40% | activity in IP P388 [1]: active against leukemia P388
O=C1C(NCCO)=C(N2CC2)C(=O)C(NCCO)=C1N1CC1 [Compound 38] | 175% and 160% | 0.4 mg/kg/injection | 61% and 51% | 1.5 mg/kg/injection | 1.5 mg/kg/injection | 175% and 119% | 0.7 mg/kg/injection | 131% and 70% | 0.7 mg/kg/injection | 205% and 134% | Excellent activity; also recorded: produced cures; also recorded: superior | 0.4 mg/kg/injection | 83% and 70% | activity in IP P388 [1]: very active producing multiple cures; animals alive per 6 [1]: 3 and 2; survivors, P388 [1]: 3; activity in B16 melanoma (B16 melanocarcinoma): reproducibly active; activity in IC L1210 (lymphoid leukemia L1210 [3]): marginal IC L1210 activity; OD (lymphoid leukemia L1210 [3]; QD1-9, Table X): 0.75 mg/kg/injection; ILS (lymphoid leukemia L1210 [3]; QD1-9, at OD, Table X): 57% and 48%; animals alive per 6 (lymphoid leukemia L1210 [2]; Day 1 only, day 30, at OD): 5 and 3; animals alive per 6 (lymphoid leukemia L1210 [2]; QD1-9, day 30, at OD): 2 and 3; survivors, IP L1210 (lymphoid leukemia L1210 [2]): 2; maximum ILS (lymphoid leukemia L1210 [2]; chronic schedule): > 200%
O=C1C(NCC(O)CO)=C(N2CC2)C(=O)C(NCC(O)CO)=C1N1CC1 (stereo not drawn) [Compound 39] | 143% | 4.0 mg/kg/injection and 6.0 mg/kg/injection | 50% and 42% | – | 4.0 mg/kg/injection and 2.0 mg/kg/injection | 89% | 4.0 mg/kg/injection and 8.0 mg/kg/injection | 90% and 79% | 4.0 mg/kg/injection and 2.0 mg/kg/injection | 206% | Excellent activity; also recorded: produced cures; also recorded: probably the most active compound in the IP ascites systems | 4.0 mg/kg/injection | 99% and 53% | activity in IP P388 [1]: very active producing multiple cures; animals alive per 6 [1]: 6 and 4; survivors, P388 [1]: 6; activity in B16 melanoma (B16 melanocarcinoma): reproducibly active; activity in IC L1210 (lymphoid leukemia L1210 [3]): marginal IC L1210 activity; OD (lymphoid leukemia L1210 [3]; QD1-9, Table X): 4.0 mg/kg/injection; ILS (lymphoid leukemia L1210 [3]; QD1-9, at OD, Table X): 43% and 41%; activity in ependymoblastoma (ependymoblastoma): moderate to good EM activity; animals alive per 6 (ependymoblastoma): 1; ILS (%) EM (ependymoblastoma; Table XI, outstanding activity): 99%; survivors, EM (ependymoblastoma; Table XI): 1; survivors, EM (ependymoblastoma; repeat test): 6; animals alive per 6 (lymphoid leukemia L1210 [2]; Day 1 only, day 30, at OD): 4; survivors, IP L1210 (lymphoid leukemia L1210 [2]): 5
CCCCNC1=C(N2CC2)C(=O)C(NCCCC)=C(N2CC2)C1=O [Compound 37] | 64% and 49% | 10.0 mg/kg/injection and 5.0 mg/kg/injection | – | 6.0 mg/kg/injection and 3.0 mg/kg/injection | 10.0 mg/kg/injection | 11% and 5% | 12.5 mg/kg/injection and 8.2 mg/kg/injection | 44% and 25% | 10.0 mg/kg/injection and 5.0 mg/kg/injection | 36% and 30% | significant reduction in activity | 5.0 mg/kg/injection and 10.0 mg/kg/injection | 93% | –
O=C1C(N2CCCCC2)=C(N2CC2)C(=O)C(N2CCCCC2)=C1N1CC1 [Compound 44] | 46% and 77% | 5.0 mg/kg/injection and 2.5 mg/kg/injection | – | – | – | 16% and 8% | – | 26% and 22% | 10.0 mg/kg/injection | 28% | – | 5.0 mg/kg/injection and 10.0 mg/kg/injection | 68% and 46% | T-C (lymphoid leukemia L1210 [2]; QD1-9, day 5, at OD): -2.2 grams
CCOC(=O)NC1=C(N2CC2(C)C)C(=O)C(NC(=O)OCC)=C(N2CC2(C)C)C1=O [Compound 11] | – | – | – | – | – | – | – | – | – | – | abolished activity | – | – | –
O=C1C(N2CCOCC2)=C(N2CC2)C(=O)C(N2CCOCC2)=C1N1CC1 [Compound 46, 2,5-DIAZIRIDINYL-3,6-DIMORPHOLINO-1,4-BENZOQUINONE] | 52% and 48% | – | 24% and 17% | – | – | -14% | 6.0 mg/kg/injection | 49% and 44% | – | 64% and 32% | – | 0.5 mg/kg/injection and 0.7 mg/kg/injection | 134% and 82% | T-C (lymphoid leukemia L1210 [2]; Q4D, day 5, at OD): -2.6 grams
CCOC(=O)NC1=C(NCCCl)C(=O)C(NC(=O)OCC)=C(NCCCl)C1=O [Compound 12] | – | – | – | – | – | – | – | – | – | – | activity was abolished | – | – | –
CCCNC1=C(N2CC2)C(=O)C(NCCC)=C(N2CC2)C1=O [Compound 36] | 151% and 108% | 5.0 mg/kg/injection | 36% and 32% | 5.0 mg/kg/injection and 10.0 mg/kg/injection | – | 17% | 6.2 mg/kg/injection | 28% and 25% | 6.2 mg/kg/injection | 48% and 43% | significant reduction in activity | 6.0 mg/kg/injection | 259% and 143% | animals alive per 6 [1]: 2; survivors, P388 [1]: 2; activity in ependymoblastoma (ependymoblastoma): highly active; also recorded: very active; also recorded: most active; animals alive per 6 (ependymoblastoma): 2 and 1; survivors, EM (ependymoblastoma; Table XI): 2
CNC1=C(N2CC2C)C(=O)C(NC)=C(N2CC2C)C1=O (stereo not drawn) [Compound 26] | – | 5.0 mg/kg/injection | 70% and 48% | 10.0 mg/kg/injection and 5.0 mg/kg/injection | 5.0 mg/kg/injection and 10.0 mg/kg/injection | 42% and 39% | 12.5 mg/kg/injection | 93% and 52% | 5.0 mg/kg/injection | 69% and 37% | – | – | – | activity in B16 melanoma (B16 melanocarcinoma): reproducibly active; OD (lymphoid leukemia L1210 [3]; QD1-9, Table X): 5.0 mg/kg/injection and 10.0 mg/kg/injection; ILS (lymphoid leukemia L1210 [3]; QD1-9, at OD, Table X): 39% and 25%; activity in ependymoblastoma (ependymoblastoma): highly active; animals alive per 6 (ependymoblastoma): 1; survivors, EM (ependymoblastoma; Table XI): 1
CCSC1=C(N2CC2)C(=O)C(SCC)=C(N2CC2)C1=O [Compound 5] | – | – | – | – | – | – | – | – | – | – | not reproducible | – | – | % ILS (lymphoid leukemia L1210 [2]; Q4D schedule): 30%
CCCSC1=C(N2CC2)C(=O)C(SCCC)=C(N2CC2)C1=O [Compound 6] | – | – | – | – | – | – | – | – | – | – | inactive | – | – | –
